Data from ChEMBL document CHEMBL1909046, “DrugMatrix in vitro pharmacology data”.
pIC50, pKi: −log10 of the molar value.

Experiments:
[1] = DRUGMATRIX: Nicotinic Acetylcholine radioligand binding (ligand: [125I] Epibatidine); type: cell membranes, Membrane; details: imr-32; Not Active = under 50% inhibition at 10 µM
Cytochrome P450 1A2 = target: T1, Cytochrome P450 1A2 (Homo sapiens, UniProt P05177); details: bti-tn-5b1-4; note: in other assays of this panel Not Active means under 50% inhibition at 10 µM
T1 sequence (P05177 whole entry): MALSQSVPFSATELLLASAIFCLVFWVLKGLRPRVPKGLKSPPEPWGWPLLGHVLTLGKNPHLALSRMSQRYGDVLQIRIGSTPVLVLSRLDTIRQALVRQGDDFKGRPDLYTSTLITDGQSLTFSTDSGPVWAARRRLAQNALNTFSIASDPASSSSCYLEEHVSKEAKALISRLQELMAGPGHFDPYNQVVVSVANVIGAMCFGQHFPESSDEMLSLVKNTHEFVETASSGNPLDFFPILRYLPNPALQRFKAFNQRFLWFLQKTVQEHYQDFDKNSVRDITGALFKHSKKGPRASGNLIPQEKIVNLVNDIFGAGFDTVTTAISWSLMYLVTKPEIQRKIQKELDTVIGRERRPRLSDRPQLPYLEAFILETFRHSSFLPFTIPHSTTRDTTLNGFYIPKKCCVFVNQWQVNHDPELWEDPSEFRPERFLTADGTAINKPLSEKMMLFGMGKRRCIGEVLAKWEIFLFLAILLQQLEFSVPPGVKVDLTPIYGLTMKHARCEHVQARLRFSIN

[2] = DRUGMATRIX: Phorbol Ester radioligand binding (ligand: [3H] PDBu); type: cell membranes, Mus musculus, ICR, Brain, Membrane; details: Not Active = under 50% inhibition at 10 µM
[3] = DRUGMATRIX: Glutamate, NMDA, Agonism radioligand binding (ligand: [3H] CGP-39653); type: cell membranes, Rattus norvegicus, Wistar, Cerebral cortex, Membrane; details: Not Active = under 50% inhibition at 10 µM
[4] = target: Epidermal growth factor receptor (Homo sapiens, UniProt P00533); assay: DRUGMATRIX: Protein Tyrosine Kinase, EGF Receptor enzyme inhibition (substrate: Poly(Glu:Tyr)); type: cell-based, Insect cells; details: Not Active = under 50% inhibition at 10 µM; for IC50: insect cells
[5] = DRUGMATRIX: Calcium Channel Type L, Benzothiazepine radioligand binding (ligand: [3H] Diltiazem); type: cell membranes, Rattus norvegicus, Wistar, Brain, Membrane; details: Not Active = under 50% inhibition at 10 µM
[6] = DRUGMATRIX: Serotonin (5-Hydroxytryptamine) 5-HT3 radioligand binding (ligand: [3H] GR-65630); type: cell membranes, Membrane; details: hek293; Not Active = under 50% inhibition at 10 µM
[7] = DRUGMATRIX: Imidazoline I2, Central radioligand binding (ligand: [3H] Idazoxan); type: cell membranes, Rattus norvegicus, Wistar, Cerebral cortex, Membrane; details: Not Active = under 50% inhibition at 10 µM
[8] = target: T2, Cholecystokinin receptor type A (Homo sapiens, UniProt P32238); type: cell membranes, Membrane; details: 1321-n1; note: in other assays of this panel Not Active means under 50% inhibition at 10 µM
T2 sequence (P32238 whole entry): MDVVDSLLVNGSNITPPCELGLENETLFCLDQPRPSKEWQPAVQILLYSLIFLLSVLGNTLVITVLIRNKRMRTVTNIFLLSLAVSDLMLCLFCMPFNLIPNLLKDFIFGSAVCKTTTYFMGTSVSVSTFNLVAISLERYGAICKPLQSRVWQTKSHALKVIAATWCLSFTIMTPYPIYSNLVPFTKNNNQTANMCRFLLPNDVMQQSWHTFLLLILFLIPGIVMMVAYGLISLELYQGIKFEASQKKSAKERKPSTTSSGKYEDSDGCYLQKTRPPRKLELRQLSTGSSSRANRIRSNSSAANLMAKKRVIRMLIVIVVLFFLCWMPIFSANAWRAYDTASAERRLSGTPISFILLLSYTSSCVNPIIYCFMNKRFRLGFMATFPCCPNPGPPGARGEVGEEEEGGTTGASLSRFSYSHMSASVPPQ

[9] = target: T3, C-X-C chemokine receptor type 1 (Homo sapiens, UniProt P25024); note: in other assays of this panel Not Active means under 50% inhibition at 10 µM
T3 sequence (P25024 whole entry): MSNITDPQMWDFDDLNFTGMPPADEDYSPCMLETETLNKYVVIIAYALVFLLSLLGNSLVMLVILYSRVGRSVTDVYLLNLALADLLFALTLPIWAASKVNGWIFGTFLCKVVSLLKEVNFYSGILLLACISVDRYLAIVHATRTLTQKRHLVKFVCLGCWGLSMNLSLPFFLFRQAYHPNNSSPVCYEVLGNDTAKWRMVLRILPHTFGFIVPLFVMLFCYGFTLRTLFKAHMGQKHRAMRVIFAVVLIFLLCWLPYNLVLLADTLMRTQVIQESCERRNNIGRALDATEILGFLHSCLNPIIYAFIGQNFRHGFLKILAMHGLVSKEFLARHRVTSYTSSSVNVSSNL

Sequence of Epidermal growth factor receptor (P00533 whole entry): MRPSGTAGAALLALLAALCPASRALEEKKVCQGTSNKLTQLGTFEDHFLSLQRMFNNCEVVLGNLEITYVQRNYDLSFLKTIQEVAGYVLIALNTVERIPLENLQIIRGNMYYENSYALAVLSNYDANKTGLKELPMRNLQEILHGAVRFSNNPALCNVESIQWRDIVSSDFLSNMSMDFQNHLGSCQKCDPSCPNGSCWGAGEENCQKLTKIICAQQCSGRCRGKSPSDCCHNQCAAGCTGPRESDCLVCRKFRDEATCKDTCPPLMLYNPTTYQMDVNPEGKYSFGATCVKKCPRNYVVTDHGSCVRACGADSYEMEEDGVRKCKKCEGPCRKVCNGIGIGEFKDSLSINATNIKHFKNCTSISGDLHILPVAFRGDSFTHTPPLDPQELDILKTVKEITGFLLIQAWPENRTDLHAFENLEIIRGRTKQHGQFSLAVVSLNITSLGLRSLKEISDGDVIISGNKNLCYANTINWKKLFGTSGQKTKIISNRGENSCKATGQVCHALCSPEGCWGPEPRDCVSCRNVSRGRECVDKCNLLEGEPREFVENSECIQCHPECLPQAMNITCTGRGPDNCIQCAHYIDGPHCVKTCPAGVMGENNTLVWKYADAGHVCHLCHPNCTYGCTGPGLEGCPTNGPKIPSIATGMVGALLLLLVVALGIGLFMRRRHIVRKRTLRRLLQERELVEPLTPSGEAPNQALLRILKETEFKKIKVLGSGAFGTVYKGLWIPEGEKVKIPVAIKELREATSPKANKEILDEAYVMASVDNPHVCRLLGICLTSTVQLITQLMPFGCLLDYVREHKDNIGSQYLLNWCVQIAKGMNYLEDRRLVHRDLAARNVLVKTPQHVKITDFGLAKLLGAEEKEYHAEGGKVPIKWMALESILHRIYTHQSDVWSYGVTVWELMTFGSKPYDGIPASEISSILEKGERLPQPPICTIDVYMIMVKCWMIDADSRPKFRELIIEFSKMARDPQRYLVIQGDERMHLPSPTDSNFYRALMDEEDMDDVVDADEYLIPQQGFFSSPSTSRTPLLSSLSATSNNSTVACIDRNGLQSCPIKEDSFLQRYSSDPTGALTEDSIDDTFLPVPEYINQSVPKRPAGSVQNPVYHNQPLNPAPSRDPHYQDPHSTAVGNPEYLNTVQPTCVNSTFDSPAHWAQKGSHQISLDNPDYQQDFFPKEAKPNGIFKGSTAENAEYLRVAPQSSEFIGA

Structure (SMILES)	IC50 [1]	Ki [1]	IC50 (Cytochrome P450 1A2)	Ki (Cytochrome P450 1A2)	IC50 [2]	Ki [2]	IC50 [3]	Ki [3]	IC50 [4]	pIC50 ([5]; read-out: IC50)	pKi ([5]; read-out: Ki)	IC50 [6]	Ki [6]	IC50 [7]	Ki [7]	IC50 [8]	IC50 [9]	IC50 [5]	Ki [5]	pIC50 ([4]; read-out: IC50)
CC(C)CC(N(C)C)C1(c2ccc(Cl)cc2)CCC1 (stereo unspecified) [SIBUTRAMINE]	Not Active	Not Active	Not Active	Not Active	Not Active	Not Active	Not Active	Not Active	Not Active	6.09	6.14	Not Active	Not Active	Not Active	Not Active	Not Active	Not Active			
Cc1onc(-c2ccccc2)c1-c1ccc(S(N)(=O)=O)cc1 [VALDECOXIB]	Not Active	Not Active	Not Active	Not Active	Not Active	Not Active	Not Active	Not Active	Not Active			Not Active	Not Active	Not Active	Not Active	Not Active	Not Active	Not Active	Not Active	
C[C@]1(Cn2ccnn2)[C@H](C(=O)O)N2C(=O)C[C@H]2S1(=O)=O [TAZOBACTAM]	Not Active	Not Active	Not Active	Not Active	Not Active	Not Active	Not Active	Not Active	Not Active			Not Active	Not Active	Not Active	Not Active	Not Active	Not Active	Not Active	Not Active	
Cc1cccc(Nc2ccncc2S(=O)(=O)NC(=O)NC(C)C)c1 [TORSEMIDE]	Not Active	Not Active	Not Active	Not Active	Not Active	Not Active	Not Active	Not Active	Not Active			Not Active	Not Active	Not Active	Not Active	Not Active	Not Active	Not Active	Not Active	
[Cl-].[Cl-].[Zn+2] [ZINC CHLORIDE]	Not Active	Not Active	Not Active	Not Active	Not Active	Not Active	Not Active	Not Active				Not Active	Not Active	Not Active	Not Active	Not Active	Not Active	Not Active	Not Active	5.66
CN1C(C(=O)Nc2ccccn2)=C(O)c2sccc2S1(=O)=O [TENOXICAM]	Not Active	Not Active	Not Active	Not Active	Not Active	Not Active	Not Active	Not Active	Not Active			Not Active	Not Active	Not Active	Not Active	Not Active	Not Active	Not Active	Not Active	
COc1cc(NS(=O)(=O)c2ccc(N)cc2)nc(OC)n1 [SULFADIMETHOXINE]	Not Active	Not Active	Not Active	Not Active	Not Active	Not Active	Not Active	Not Active	Not Active			Not Active	Not Active	Not Active	Not Active	Not Active	Not Active	Not Active	Not Active	
CC(=O)N[C@@H]1[C@H](Oc2c3cc4cc2Oc2ccc(cc2Cl)[C@@H](O[C@@H]2O[C@@H](CO)[C@@H](O)[C@H](O)[C@@H]2NC(C)=O)[C@@H]2NC(=O)[C@H](NC(=O)[C@@H]4NC(=O)[C@H]4NC(=O)[C@@H](Cc5ccc(c(Cl)c5)O3)NC(=O)[C@H](N)c3ccc(O)c(c3)Oc3cc(O)cc4c3)c3ccc(O)c(c3)-c3c(O[C@H]4O[C@H](CO)[C@@H](O)[C@@H](O)[C@@H]4O)cc(O)cc3[C@@H](C(=O)O)NC2=O)O[C@@H](CO)[C@@H](O)[C@@H]1O	Not Active	Not Active	Not Active	Not Active	Not Active	Not Active	Not Active	Not Active	Not Active			Not Active	Not Active	Not Active	Not Active	Not Active	Not Active	Not Active	Not Active	
O=C1CCC(N2C(=O)c3ccccc3C2=O)C(=O)N1 (stereo unspecified) [THALIDOMIDE]	Not Active	Not Active	Not Active	Not Active	Not Active	Not Active	Not Active	Not Active	Not Active			Not Active	Not Active	Not Active	Not Active	Not Active	Not Active	Not Active	Not Active	
CC[C@]1(O)C[C@@H]2CN(CCc3c([nH]c4ccccc34)[C@@](C(=O)OC)(c3cc4c(cc3OC)N(C)[C@H]3[C@@](O)(C(=O)OC)[C@H](OC(C)=O)[C@]5(CC)C=CCN6CC[C@]43[C@@H]65)C2)C1 [VINBLASTINE]	Not Active	Not Active	Not Active	Not Active	Not Active	Not Active	Not Active	Not Active	Not Active			Not Active	Not Active	Not Active	Not Active	Not Active	Not Active	Not Active	Not Active	
CC1=C(CC(=O)O)c2cc(F)ccc2/C1=C\c1ccc([S+](C)[O-])cc1 (stereo unspecified)	Not Active	Not Active	Not Active	Not Active	Not Active	Not Active	Not Active	Not Active	Not Active			Not Active	Not Active	Not Active	Not Active	Not Active	Not Active	Not Active	Not Active	
CC(C)C[C@H](NC(=O)[C@@H](O)[C@H](N)Cc1ccccc1)C(=O)O [UBENIMEX]	Not Active	Not Active	Not Active	Not Active	Not Active	Not Active	Not Active	Not Active	Not Active			Not Active	Not Active	Not Active	Not Active	Not Active	Not Active	Not Active	Not Active	
CC(=O)CC(c1ccccc1)c1c(O)c2ccccc2oc1=O (stereo unspecified) [WARFARIN]	Not Active	Not Active	Not Active	Not Active	Not Active	Not Active	Not Active	Not Active	Not Active			Not Active	Not Active	Not Active	Not Active	Not Active	Not Active	Not Active	Not Active	
